Test results: publication PMC12040169 (PLOS Biology, 2025)

Assay: in vitro
Settings: human, hela cells, % viability

SMILES	viability at 28.5 h, 10 µM [%]
Cn1c(SCC(=O)Nc2ccc(Br)cc2C(F)(F)F)nnc1-c1ccncc1 [CBK265905]	84.4
Cc1ccc(C)c(Oc2coc3cc(OCC(=O)Nc4ccccc4C(C)C)ccc3c2=O)c1 [CBK265906]	113
Cc1sc2ncnc(NCCOCCO)c2c1C [CBK265907]	104
CC1CCc2c(sc(NC(=O)c3ccccc3)c2CN2CCCC2)C1 (stereo not shown) [CBK265908]	98.7
Cc1ccc(-n2c(SCC(=O)NCc3ccccc3)nnc2-c2ccc(Cl)cc2)cc1C [CBK265909]	97.9
CC(C)c1ccc(OCC(=O)NCc2ccccn2)c(Br)c1 [CBK265910]	99.2
COc1ccc([N+](=O)[O-])cc1Nc1nc(-c2ccccc2)nc2ccccc12 [CBK265913]	95.4
O=S(=O)(NCC1CCCO1)c1ccc2oc3ccc(S(=O)(=O)NCC4CCCO4)cc3c2c1 (stereo not shown) [CBK265914]	96.2
COc1ccc(C(=O)Nc2ccc3c(c2)C(=O)N(CCC(=O)O)C3=O)cc1 [CBK265921]	93.1
Cc1ccc(-c2noc(CN3CCN(c4ccccc4)CC3)n2)cc1 [CBK265924]	101
Cc1cc2nnc(SCC(=O)Nc3ccc4c(c3)OCO4)n2c2ccccc12 [CBK265926]	82.8
CCn1c(SCC(=O)Nc2ccc(C(=O)O)cc2)nnc1-c1ccccc1C [CBK265927]	107
Cc1ccc(-c2nc3ccccc3[nH]2)cc1NC(=O)COc1cccc([N+](=O)[O-])c1 [CBK265932]	94.3
CCc1cccc(CC)c1NC(=O)CN(c1cccc(Cl)c1Cl)S(C)(=O)=O [CBK265934]	103
OCCN(CCO)c1nc(-c2ccccc2)nc2sc(-c3ccccc3)cc12 [CBK265935]	105
COCCn1c(SCc2ccc([N+](=O)[O-])cc2)nnc1-c1ccccc1 [CBK265937]	89.6
Cc1sc2ncnc(SCC(=O)Nc3sc4c(c3C#N)CCCC4)c2c1-c1ccccc1 [CBK265938]	93.3

SMILES	viability at 28.5 h, 10 µM [%]
NCc1oc(-c2ccccc2)cc1C(=O)O [CBK265941C]	89.8
COC(=O)c1c(NC(=O)CSc2nnc3ccccn23)sc(C)c1C [CBK265943]	95.7
COc1ccc(-c2ccc(CCC(=O)O)n2Cc2ccco2)cc1 [CBK265945]	92.6
NC1=C(c2nc3ccccc3s2)C(=O)CN1CCN1CCOCC1 [CBK265946]	93.1
N#Cc1c(C(F)(F)F)cc(-c2cccs2)nc1SCC(O)CN1CCSCC1 (stereo not shown) [CBK265947]	88.2
O=C(COc1ccc(S(=O)(=O)NC2CCCCC2)cc1)N1CCN(c2cccc(Cl)c2)CC1 [CBK265948]	90.6
COc1ccc(-c2cc(-c3ccccc3)c(C#N)c(S(=O)(=O)Cc3ccccc3)n2)cc1 [CBK265949]	89.6
NC(=S)Nn1c(CCC(=O)O)ccc1-c1cccs1 [CBK265952]	92.3
O=C(O)CCc1ccc(-c2ccc(F)cc2)n1Cc1ccco1 [CBK265953]	83.9
Cc1cc(I)ccc1NC(=O)CN(c1ccccc1)S(=O)(=O)c1ccccc1[N+](=O)[O-] [CBK265954]	78.6
CCn1c(COc2ccccc2Cl)nnc1SCC(=O)N1c2ccccc2Sc2ccccc21 [CBK265957]	114
COC(=O)c1ccccc1NC(=O)CCSc1ccc(C)cc1 [CBK265958]	91.9
O=C(COc1ccc(S(=O)(=O)NC2CCCCC2)cc1)Nc1ccc2c(c1)OCO2 [CBK265960]	84.5
Cc1ccc(Nc2nc(N)nc(CSCCO)n2)cc1 [CBK265962]	97.1
O=c1c2ccccc2nc2c3ccccc3c(NCc3ccccn3)nn12 [CBK265964]	89.3
CCOC(=O)c1cnc2c(C)c(Cl)ccc2c1NCCN(C)C [CBK265965]	102
COC(=O)c1ccccc1NC(=O)CSc1nnc(-c2ccccc2Cl)[nH]1 [CBK265966]	95.4
